From PMC10803289, “Transport and inhibition mechanism of the human SGLT2–MAP17 glucose transporter” (Nature Structural & Molecular Biology, 2023)
“And” between values parts separate entries of the source, which are not always exact repeats. Equal values may be shown once. Read-outs that look alike come from different tables or passages of the source.

Columns and labels:
hSGLT2 S74A [1] = molecular target: T1, hSGLT2 S74A (Homo sapiens, UniProt P31639, S74A); format: binding; details: S74A
T1 construct: expressed in transfected cells; host or cells: Expi293 cells, crude membrane fraction
T1 sequence (P31639 whole entry S74A, one chain of several): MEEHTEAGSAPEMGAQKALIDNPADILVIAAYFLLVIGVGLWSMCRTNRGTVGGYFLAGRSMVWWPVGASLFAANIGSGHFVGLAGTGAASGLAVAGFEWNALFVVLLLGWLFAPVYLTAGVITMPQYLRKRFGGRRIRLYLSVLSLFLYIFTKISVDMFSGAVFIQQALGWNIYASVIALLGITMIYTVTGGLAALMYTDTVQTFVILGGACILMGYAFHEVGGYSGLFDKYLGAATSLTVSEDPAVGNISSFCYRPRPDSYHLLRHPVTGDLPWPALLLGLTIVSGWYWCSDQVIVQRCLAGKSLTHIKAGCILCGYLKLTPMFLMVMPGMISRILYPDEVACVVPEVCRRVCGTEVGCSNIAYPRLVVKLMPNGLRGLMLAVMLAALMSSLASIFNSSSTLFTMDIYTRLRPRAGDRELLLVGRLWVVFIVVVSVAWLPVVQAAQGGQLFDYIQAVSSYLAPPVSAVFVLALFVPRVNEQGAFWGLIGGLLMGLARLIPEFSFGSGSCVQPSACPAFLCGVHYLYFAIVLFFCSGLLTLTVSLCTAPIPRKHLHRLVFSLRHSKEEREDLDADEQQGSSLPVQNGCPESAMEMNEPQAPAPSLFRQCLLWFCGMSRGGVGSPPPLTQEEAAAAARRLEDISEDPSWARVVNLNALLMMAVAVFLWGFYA
From the text: (§1) hSGLT2 complementary DNA and human MAP17 cDNA were synthesized and codon-optimized for expression in human cell lines. Both cDNAs were cloned into the pcDNA3.4 vector. The hSGLT2 sequence was fused with an N-terminal signal sequence from human trypsinogen 1, a His10 tag, and sfGFP, followed by a human rhinovirus 3C protease (HRV3C protease) recognition site. Point mutations were introduced into this construct using site-directed mutagenesis. These plasmids were utilized for all experimental procedures conducted in this study.
To examine the inhibition of binding to the crude membrane, mammalian Expi293 cells were co-transfected with the hMAP17 and hSGLT2 plasmids, as described. The cells were collected and disrupted by sonication in a hypotonic buffer (50 mM HEPES–NaOH (pH 7.5), 10 mM KCl and protease inhibitor cocktail) or Na^+-free hypotonic buffer (50 mM Tris–HCl (pH 7.5), 10 mM KCl and protease inhibitor cocktail). The cell debris were removed by centrifugation (2,000g, 5 min, 4 °C). The membrane fraction was collected by ultracentrifugation (112,000g, 30 min, 4 °C) and stored at −80 °C before use. […] The extract solution from the filter plate was diluted with water containing candesartan as an internal standard, and the SGLT2 inhibitor concentration was quantified via LC–MS/MS.
Nonspecific binding was measured using the crude membrane of nontransfected Expi293 cells. Specific binding was calculated by subtracting nonspecific binding from the binding of hSGLT2-expressing cells. Specific binding was normalized to hSGLT2 protein expression levels, measured via FSEC. The equilibrium dissociation constant (Kd) and maximum number of binding sites (Bmax) were calculated via nonlinear regression in GraphPad Prism 8.4.3. […]
The concentrations of the extract solution from the filter plate and of the cell lysate were quantified using a tandem mass spectrometry QTRAP6500 System (SCIEX) coupled with an ACQUITY UPLC system (Waters) using the internal standard method. […]

hSGLT2 F98A = molecular target: T2, hSGLT2 F98A (Homo sapiens, UniProt P31639, F98A); assay: α-MG uptake in HEK293 cells, F98A mutant; format: cell-based; set-up: expressed in transfected cells
T2 sequence (P31639 1-672 F98A): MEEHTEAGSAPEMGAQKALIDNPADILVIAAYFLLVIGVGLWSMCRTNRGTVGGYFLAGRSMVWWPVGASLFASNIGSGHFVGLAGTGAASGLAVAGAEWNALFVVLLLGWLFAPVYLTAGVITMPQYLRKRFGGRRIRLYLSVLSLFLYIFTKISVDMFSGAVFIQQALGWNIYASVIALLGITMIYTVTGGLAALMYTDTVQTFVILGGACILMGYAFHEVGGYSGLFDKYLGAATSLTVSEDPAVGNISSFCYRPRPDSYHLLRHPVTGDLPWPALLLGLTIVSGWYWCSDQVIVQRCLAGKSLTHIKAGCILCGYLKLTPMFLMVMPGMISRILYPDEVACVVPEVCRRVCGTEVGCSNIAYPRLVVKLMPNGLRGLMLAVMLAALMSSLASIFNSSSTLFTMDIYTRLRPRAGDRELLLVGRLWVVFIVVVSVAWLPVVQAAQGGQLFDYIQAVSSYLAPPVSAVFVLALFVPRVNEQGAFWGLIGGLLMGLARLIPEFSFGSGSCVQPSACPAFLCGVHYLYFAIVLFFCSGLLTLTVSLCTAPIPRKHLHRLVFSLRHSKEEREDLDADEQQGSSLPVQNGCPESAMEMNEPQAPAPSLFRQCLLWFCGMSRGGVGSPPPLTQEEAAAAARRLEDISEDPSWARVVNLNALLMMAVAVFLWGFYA
T2 sequence (Q13113 1-114 partner): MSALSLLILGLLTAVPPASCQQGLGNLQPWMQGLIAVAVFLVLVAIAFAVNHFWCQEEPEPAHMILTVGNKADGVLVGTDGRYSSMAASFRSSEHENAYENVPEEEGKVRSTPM
From the text: as §1
HEK293 cells (ECACC 85120602) were maintained in Dulbecco’s modified Eagle medium (Gibco) supplemented with 10% fetal bovine serum (Thermo Scientific), 2 mM L-glutamine, 100 U ml^−1 benzylpenicillin and 100 µg ml^−1 streptomycin at 37 °C in a humidified atmosphere (5% CO2 in air). HEK293 cells were seeded at 1.0 × 10^5 cells per well in poly-L-lysine coated 24-well plates. The cells in each well were transiently transfected with 0.25 µg hMAP17 plasmid and 0.50 µg hSGLT2 plasmid using Lipofectamine 2000 (Life Technologies) and cultured for 48 h. […] After preincubation, uptake was initiated by replacing the preincubation buffer with extracellular fluid buffer containing 500 μM α-MG in the absence or presence of inhibitors. Uptake was completed by removing the uptake buffer and washing with ice-cold buffer three times, followed by solubilization in 1 N NaOH at room temperature.
Cell lysates were deproteinized by adding acetonitrile containing candesartan as the internal standard. The α-MG concentration was quantified via liquid chromatography–tandem mass spectrometry (LC–MS/MS) using the internal standard method.
Cellular protein content was determined using a bicinchoninic acid protein assay kit (Thermo Fisher Scientific). The uptake of α-MG was expressed as the ratio of concentration in the cells (in pmol per mg protein) to concentration in the medium (in pmol μl^−1); this is known as the cell-to-medium ratio (in μl per mg protein).
In the inhibition study, the cell-to-medium ratio of cells transfected with the empty vector was used as the background. The specific α-MG uptake was calculated by subtracting this background from the total cell-to-medium ratio and normalized to the uptake achieved without the inhibitor. IC50 was calculated via nonlinear regression using GraphPad Prism 8.4.3.
The concentrations of the extract solution from the filter plate and of the cell lysate were quantified using a tandem mass spectrometry QTRAP6500 System (SCIEX) coupled with an ACQUITY UPLC system (Waters) using the internal standard method. Mobile phases A and B used 10 mM of ammonium bicarbonate and acetonitrile, respectively.

hSGLT2 S74A [2] = molecular target: T1, hSGLT2 S74A; format: cell-based

## Cc1ccc([C@@H]2O[C@H](CO)[C@@H](O)[C@H](O)[C@H]2O)cc1Cc1ccc(-c2ccc(F)cc2)s1 [Canagliflozin]
hSGLT2 S74A [1]; 30 nM canagliflozin, replicates
  Canagliflozin binding (% of WT): 75.2559 % of WT and 78.5839 % of WT and 93.2268 % of WT

## O=C(CCc1ccc(O)cc1)c1c(O)cc(O)cc1O[C@@H]1O[C@H](CO)[C@@H](O)[C@H](O)[C@H]1O [Phlorizin]
hSGLT2 F98A; HEK293, Phlorizin 300 nM, read-out: α-MG uptake (% of control)
  remaining activity at 0.3 µM: 80.5%
hSGLT2 F98A; Phlorizin 0.3 nM
  α-MG uptake (% of control): 115.8 % of control and 94.2 % of control and 155.8 % of control
hSGLT2 F98A; Phlorizin 3 nM
  α-MG uptake (% of control): 76.0 % of control and 88.8 % of control and 126.1 % of control
hSGLT2 F98A; Phlorizin 10 nM
  α-MG uptake (% of control): 79.6 % of control and 104.3 % of control and 76.0 % of control
hSGLT2 F98A; Phlorizin 30 nM
  α-MG uptake (% of control): 103.1 % of control and 103.4 % of control and 128.4 % of control
hSGLT2 F98A; Phlorizin 100 nM
  α-MG uptake (% of control): 135.2 % of control and 89.8 % of control and 99.6 % of control
hSGLT2 F98A; Phlorizin 300 nM
  α-MG uptake (% of control): 69.6 % of control and 82.5 % of control
hSGLT2 S74A [2]; Phlorizin 0.3 nM
  α-MG uptake (% of control): 98.3 % of control and 109.0 % of control and 132.4 % of control
hSGLT2 S74A [2]; Phlorizin 1 nM
  α-MG uptake (% of control): 94.4 % of control and 116.6 % of control and 114.8 % of control
hSGLT2 S74A [2]; Phlorizin 3 nM
  α-MG uptake (% of control): 99.5 % of control and 109.8 % of control
hSGLT2 S74A [2]; Phlorizin 10 nM
  α-MG uptake (% of control): 92.0 % of control and 68.8 % of control
hSGLT2 S74A [2]; Phlorizin 30 nM
  α-MG uptake (% of control): 76.5 % of control and 90.7 % of control
hSGLT2 S74A [2]; Phlorizin 100 nM
  α-MG uptake (% of control): 51.6 % of control and 68.4 % of control
hSGLT2 S74A [2]; Phlorizin 300 nM
  α-MG uptake (% of control): 32.7 % of control and 25.1 % of control
hSGLT2 S74A [1]; phlorizin, mean ± SEM n=3
  Bmax1: 1.16 ± 0.07 pmol/mg-protein

## CO[C@H]1O[C@H](CO)[C@@H](O)[C@H](O)[C@H]1O [α-MG, α-methyl-D-glucopyranoside]
hSGLT2 F98A; Fig. 3h
  α-MG uptake: 55.68 μL/mg-protein and 75.98 μL/mg-protein and 85.61 μL/mg-protein
hSGLT2 S74A [2]; Fig. 3h
  α-MG uptake: 27.75 μL/mg-protein and 30.77 μL/mg-protein and 34.71 μL/mg-protein
